For this assay, the system named is CD2F1 mice, L1210 leukemia ip, survival T/C. As to the kind of experiment: NCI In Vivo Anticancer Drug Screen. Data for tumor model L1210 Leukemia (intraperitoneal) in CD2F1 (CDF1) mice. Particulars: higher = longer survival. An outline of the steps: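 Antitumor effect is scored in animals hosting a serially transplanted tumor. Values compare compound-dosed animals against vehicle-only controls as a simple quotient.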

Where [1] appears, read: endpoint: mean survival time, dose: 100.0 mg/kg/injection, schedule: Q01DX001 (ip), vehicle: saline with Tween-80.
[2] abbreviates: endpoint: mean survival time, dose: 200.0 mg/kg/injection, schedule: Q01DX001 (ip), vehicle: saline with Tween-80.
Setting [3] is: endpoint: mean survival time, dose: 400.0 mg/kg/injection, schedule: Q01DX001 (ip), vehicle: saline with Tween-80.
[4] abbreviates: endpoint: mean survival time, dose: 100.0 mg/kg/injection, schedule: Q01DX001 (ip), vehicle: saline.
Where [5] appears, read: endpoint: mean survival time, dose: 200.0 mg/kg/injection, schedule: Q01DX001 (ip), vehicle: saline.
[6] abbreviates: endpoint: mean survival time, dose: 100.0 mg/kg/injection, schedule: Q04DX003 (ip), vehicle: saline.
[7] abbreviates: endpoint: mean survival time, dose: 200.0 mg/kg/injection, schedule: Q04DX003 (ip), vehicle: saline.
[8] abbreviates: endpoint: mean survival time, dose: 25.0 mg/kg/injection, schedule: Q01DX009 (ip), vehicle: other.
Where [9] appears, read: endpoint: mean survival time, dose: 50.0 mg/kg/injection, schedule: Q01DX009 (ip), vehicle: other.
Setting [10] is: endpoint: mean survival time, dose: 100.0 mg/kg/injection, schedule: Q01DX009 (ip), vehicle: other.
Where [11] appears, read: endpoint: mean survival time, dose: 100.0 mg/kg/injection, schedule: Q01DX009 (ip), vehicle: saline with Tween-80.
Setting [12] is: endpoint: mean survival time, dose: 200.0 mg/kg/injection, schedule: Q01DX009 (ip), vehicle: saline with Tween-80.
Setting [13] is: endpoint: mean survival time, dose: 400.0 mg/kg/injection, schedule: Q01DX009 (ip), vehicle: saline with Tween-80.

Several values for one entry are separate records, joined by “and”; a condition that tells them apart may be missing. Identical values can stand only once. Inconclusive results and toxic doses are left out.

In the case of `CC(C)NC(=O)C1CC2c3cccc4[nH]c(Br)c(c34)CC2N(C)C1` (stereo not given), the T/C was 90 % of control (endpoint: mean survival time, dose: 5.0 mg/kg/injection, schedule: Q01DX009 (ip), vehicle: saline with Tween-80); 104 % of control (endpoint: mean survival time, dose: 10.0 mg/kg/injection, schedule: Q01DX009 (ip), vehicle: saline with Tween-80); 94 % of control (endpoint: mean survival time, dose: 20.0 mg/kg/injection, schedule: Q01DX009 (ip), vehicle: saline with Tween-80).
As to `COc1cc2c(C)nc3c4cc5c(cc4ccc3c2cc1OC)OCO5`, the T/C (endpoint: mean survival time, dose: 3.13 mg/kg/injection, schedule: Q01DX009 (ip), vehicle: water) was 97 % of control; the T/C (endpoint: mean survival time, dose: 6.25 mg/kg/injection, schedule: Q01DX009 (ip), vehicle: water) was 92 % of control; the T/C (endpoint: mean survival time, dose: 12.5 mg/kg/injection, schedule: Q01DX009 (ip), vehicle: water) was 90 % of control; the T/C (endpoint: mean survival time, dose: 25.0 mg/kg/injection, schedule: Q01DX009 (ip), vehicle: water) was 95 % of control; the T/C (endpoint: mean survival time, dose: 50.0 mg/kg/injection, schedule: Q01DX009 (ip), vehicle: water) is 93 % of control.
As to `CCC(CC)=NN(C)C`, the T/C runs as follows: (endpoint: mean survival time, dose: 75.0 mg/kg/injection, schedule: Q01DX001 (ip), vehicle: saline) 100 % of control; (endpoint: mean survival time, dose: 150.0 mg/kg/injection, schedule: Q01DX001 (ip), vehicle: saline) 96 % of control; (endpoint: mean survival time, dose: 300.0 mg/kg/injection, schedule: Q01DX001 (ip), vehicle: saline) 96 % of control.
As to `Clc1ccccc1/C=N/N=C/c1ccccc1Cl`, the T/C is 91 % of control under setting [1], 90 % of control under setting [2] and 89 % of control under setting [3].
On to `CCC(=O)OCC[N+](C)(C)C`, for which the T/C is 100 % of control under setting [4]; 96 % of control under setting [5]; 96 % of control (endpoint: mean survival time, dose: 400.0 mg/kg/injection, schedule: Q01DX001 (ip), vehicle: saline).
Regarding `O=C(O)C1CC1`, the T/C was 96 % of control under setting [4] and 108 % of control under setting [5].
Take `CC/C(I)=C(/CC)S(=O)(=O)c1ccc(C)cc1`: the T/C reads like this: under setting [6], 95 % of control; under setting [7], 103 % of control; (endpoint: mean survival time, dose: 400.0 mg/kg/injection, schedule: Q04DX003 (ip), vehicle: saline) 94 % of control.
Turning to `O=[N+]([O-])c1ccc(F)c(Cl)c1`, the T/C under setting [8] is 96 % of control, the T/C under setting [9] was 100 % of control and the T/C under setting [10] was 96 % of control.
Take `CNCCN=c1ccc2c3c1c(O)c1c(O)ccc(=O)c1c3[nH]n2CCNCCO`: the T/C is, setting by setting: (endpoint: median survival time, dose: 0.37 mg/kg/injection, schedule: Q01DX009 (ip), vehicle: water) 152 % of control and 207 % of control; (endpoint: median survival time, dose: 0.75 mg/kg/injection, schedule: Q01DX009 (ip), vehicle: water) 182 % of control and 195 % of control; (endpoint: median survival time, dose: 1.5 mg/kg/injection, schedule: Q01DX009 (ip), vehicle: water) 154 % of control and 195 % of control; (endpoint: median survival time, dose: 3.0 mg/kg/injection, schedule: Q01DX009 (ip), vehicle: water) 264 % of control and 280 % of control; (endpoint: median survival time, dose: 3.12 mg/kg/injection, schedule: Q01DX009 (ip), vehicle: water) 337 % of control; (endpoint: median survival time, dose: 6.0 mg/kg/injection, schedule: Q01DX009 (ip), vehicle: water) 120 % of control and 103 % of control. For the setting “endpoint: median survival time, dose: 6.25 mg/kg/injection, schedule: Q01DX009 (ip), vehicle: water”, the T/C was 120 % of control.
For the compound `CS/C([S-])=N/[NH-].CS/C([S-])=N/[NH-].[Ni]`, the T/C was 97 % of control (endpoint: mean survival time, dose: 3.13 mg/kg/injection, schedule: Q01DX009 (ip), vehicle: saline with Tween-80) and 102 % of control (endpoint: mean survival time, dose: 12.5 mg/kg/injection, schedule: Q01DX001 (ip), vehicle: saline with Tween-80).
`O=C(C[n+]1cc2ccccc2c2ccccc21)c1ccccc1`: the T/C by setting is: under setting [6], 95 % of control; under setting [7], 86 % of control.
As for `O=C(NC(=O)c1ccccc1)c1ccccc1`, the T/C was 101 % of control (endpoint: mean survival time, dose: 100.0 mg/kg/injection, schedule: Q01DX001 (ip), vehicle: Klucel (hydroxypropylcellulose) (HPC)); 103 % of control (endpoint: mean survival time, dose: 100.0 mg/kg/injection, schedule: Q04DX003 (ip), vehicle: saline with Tween-80); 102 % of control (endpoint: mean survival time, dose: 200.0 mg/kg/injection, schedule: Q01DX001 (ip), vehicle: Klucel (hydroxypropylcellulose) (HPC)); 102 % of control (endpoint: mean survival time, dose: 200.0 mg/kg/injection, schedule: Q04DX003 (ip), vehicle: saline with Tween-80); 96 % of control (endpoint: mean survival time, dose: 400.0 mg/kg/injection, schedule: Q01DX001 (ip), vehicle: Klucel (hydroxypropylcellulose) (HPC)); 97 % of control (endpoint: mean survival time, dose: 400.0 mg/kg/injection, schedule: Q04DX003 (ip), vehicle: saline with Tween-80).
Take `O=C(Nc1ncnc2c1[nH]c(=O)n2C1OC(CO)C2OC21)c1ccccc1` (stereo not given): the T/C was 92 % of control (endpoint: mean survival time, dose: 12.5 mg/kg/injection, schedule: Q01DX005 (ip), vehicle: distilled water + Tween-80); 100 % of control (endpoint: mean survival time, dose: 25.0 mg/kg/injection, schedule: Q01DX005 (ip), vehicle: distilled water + Tween-80); 95 % of control (endpoint: mean survival time, dose: 50.0 mg/kg/injection, schedule: Q01DX005 (ip), vehicle: distilled water + Tween-80); 90 % of control (endpoint: mean survival time, dose: 100.0 mg/kg/injection, schedule: Q01DX005 (ip), vehicle: distilled water + Tween-80); 93 % of control (endpoint: mean survival time, dose: 200.0 mg/kg/injection, schedule: Q01DX005 (ip), vehicle: distilled water + Tween-80).
Turning to `COc1ccc(OC)c(C(=O)CC(O)(C(F)(F)F)C(F)(F)F)c1`, the T/C by setting is: under setting [11], 97 % of control; under setting [12], 101 % of control; under setting [13], 97 % of control.
On to `CN(Cc1cnc(N)c(C#N)n1)c1ccc(C(=O)NC(CCC(=O)OC(C)(C)C)C(=O)OC(C)(C)C)cc1` (stereo not given), for which the T/C is 91 % of control (endpoint: mean survival time, dose: 100.0 mg/kg/injection, schedule: Q04DX002 (ip), vehicle: saline with Tween-80); 91 % of control (endpoint: mean survival time, dose: 200.0 mg/kg/injection, schedule: Q04DX002 (ip), vehicle: saline with Tween-80); 102 % of control (endpoint: mean survival time, dose: 400.0 mg/kg/injection, schedule: Q04DX002 (ip), vehicle: saline with Tween-80).
For `O=c1[nH]cc(N=Cc2ccccc2F)c(=O)[nH]1.[Cl][Pt][Cl]`, the T/C runs as follows: (endpoint: mean survival time, dose: 3.13 mg/kg/injection, schedule: Q04DX003 (ip), vehicle: water) 97 % of control; (endpoint: mean survival time, dose: 6.25 mg/kg/injection, schedule: Q04DX003 (ip), vehicle: water) 96 % of control; (endpoint: mean survival time, dose: 12.5 mg/kg/injection, schedule: Q04DX003 (ip), vehicle: water) 97 % of control; (endpoint: mean survival time, dose: 25.0 mg/kg/injection, schedule: Q04DX003 (ip), vehicle: water) 100 % of control; (endpoint: mean survival time, dose: 50.0 mg/kg/injection, schedule: Q04DX003 (ip), vehicle: water) 97 % of control; (endpoint: mean survival time, dose: 100.0 mg/kg/injection, schedule: Q04DX003 (ip), vehicle: water) 91 % of control. Besides, the T/C (endpoint: mean survival time, dose: 200.0 mg/kg/injection, schedule: Q04DX003 (ip), vehicle: water) was 100 % of control.
Consider `CN(C)CCSCC(=O)N1c2ccccc2Sc2ccccc21`, for which, under setting [6], the T/C was 96 % of control.
As for `Cc1csc2ncnc(Cl)c12`, the T/C by setting is: under setting [1], 101 % of control; under setting [2], 97 % of control; under setting [3], 97 % of control.
With `Cc1cnccc1N=Nc1ccc(N(C)C)cc1`, the T/C was 117 % of control under setting [11], 102 % of control under setting [12] and 96 % of control under setting [13].
Turning to `NC(N)=Nc1nc2ccccc2[nH]1`, the T/C was 104 % of control (endpoint: mean survival time, dose: 7.0 mg/kg/injection, schedule: Q01DX009 (ip), vehicle: saline); 104 % of control (endpoint: mean survival time, dose: 14.0 mg/kg/injection, schedule: Q01DX009 (ip), vehicle: saline); 98 % of control (endpoint: mean survival time, dose: 28.0 mg/kg/injection, schedule: Q01DX009 (ip), vehicle: saline).
Regarding `CCOC(=O)C1C(=O)N(Cc2ccccc2)C(=O)N1C` (stereo not given), the T/C runs as follows: (endpoint: mean survival time, dose: 12.5 mg/kg/injection, schedule: Q01DX009 (ip), vehicle: other) 98 % of control; under setting [8], 104 % of control; under setting [9], 100 % of control; under setting [10], 100 % of control; (endpoint: mean survival time, dose: 200.0 mg/kg/injection, schedule: Q01DX009 (ip), vehicle: other) 100 % of control.

(Values after PubChem BioAssay AID256 (DTP/NCI, 2004).)
